The target of assay [1] is V-type proton ATPase subunit c' (Saccharomyces cerevisiae S288c, UniProt P32842). Put plainly: Dose Response of Small Molecules that Regulate V-ATPase Proton Transport in Yeast using pHLuorin, Cherry Pick 2. The class given is functional. The following applies: read-out: EC50_MICROM.
In assay [2] the target is Mitochondrial peptide methionine sulfoxide reductase (Bos taurus, UniProt P54149). The class given is functional.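 Note: absorbance read-out, biochemical high-throughput dose-response screen for MsrA inhibitors, confirmatory; recombinant bovine MsrA coupled to E. coli TrxB with NADPH and selenocystamine; potency is for inhibitors of MsrA activity on DMSO substrate.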
Mitochondrial peptide methionine sulfoxide reductase, sequence (P54149 whole entry): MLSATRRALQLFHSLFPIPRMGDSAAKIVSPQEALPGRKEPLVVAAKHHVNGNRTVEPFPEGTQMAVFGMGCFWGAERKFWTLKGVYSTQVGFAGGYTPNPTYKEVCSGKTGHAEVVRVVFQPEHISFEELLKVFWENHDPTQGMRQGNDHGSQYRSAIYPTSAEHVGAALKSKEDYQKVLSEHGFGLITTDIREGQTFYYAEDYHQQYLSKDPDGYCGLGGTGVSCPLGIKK
A short description of assay [3]: Counterscreen for IDE inhibitors: Luminescence-based cell-based high throughput dose response assay to identify compounds that are cytotoxic to HEK cells. [Related pubchem assays: 434962 (Primary screen (IDE inhibitors in singlicate)), 449730 (Counterscreen (Cytotoxicity in triplicate)), 435028 (Confirmation (IDE inhibitors in triplicate)) …. The class given is functional. The following applies: HEK293.

For the next assay, the target named is Large T antigen (Simian virus 40, UniProt P03070). The class given is functional, Betapolyomavirus macacae.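 Note: Confirmatory-stage PubChem screen for compounds that inhibit SV40 T antigen.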
Large T antigen, sequence (P03070 whole entry): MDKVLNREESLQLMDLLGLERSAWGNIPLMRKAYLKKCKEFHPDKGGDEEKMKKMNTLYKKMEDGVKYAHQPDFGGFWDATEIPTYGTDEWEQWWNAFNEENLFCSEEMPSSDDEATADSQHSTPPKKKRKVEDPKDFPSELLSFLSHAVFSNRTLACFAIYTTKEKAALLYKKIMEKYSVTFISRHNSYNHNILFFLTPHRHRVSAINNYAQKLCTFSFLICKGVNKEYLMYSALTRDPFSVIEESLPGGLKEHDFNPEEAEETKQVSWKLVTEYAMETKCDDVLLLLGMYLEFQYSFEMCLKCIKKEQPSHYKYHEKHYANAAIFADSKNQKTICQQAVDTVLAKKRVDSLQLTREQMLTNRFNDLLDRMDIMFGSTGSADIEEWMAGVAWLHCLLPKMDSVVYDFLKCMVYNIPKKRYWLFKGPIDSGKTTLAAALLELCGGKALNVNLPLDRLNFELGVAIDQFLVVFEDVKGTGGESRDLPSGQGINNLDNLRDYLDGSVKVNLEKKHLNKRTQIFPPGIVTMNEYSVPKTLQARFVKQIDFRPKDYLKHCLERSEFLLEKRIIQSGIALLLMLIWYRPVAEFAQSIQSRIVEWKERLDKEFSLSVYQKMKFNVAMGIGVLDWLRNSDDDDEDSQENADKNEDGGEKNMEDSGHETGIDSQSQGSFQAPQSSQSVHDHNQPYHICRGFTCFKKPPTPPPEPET
A further assay concerns the target T1, Insulin-degrading enzyme (Homo sapiens, UniProt P14735).
T1 sequence (P14735 whole entry): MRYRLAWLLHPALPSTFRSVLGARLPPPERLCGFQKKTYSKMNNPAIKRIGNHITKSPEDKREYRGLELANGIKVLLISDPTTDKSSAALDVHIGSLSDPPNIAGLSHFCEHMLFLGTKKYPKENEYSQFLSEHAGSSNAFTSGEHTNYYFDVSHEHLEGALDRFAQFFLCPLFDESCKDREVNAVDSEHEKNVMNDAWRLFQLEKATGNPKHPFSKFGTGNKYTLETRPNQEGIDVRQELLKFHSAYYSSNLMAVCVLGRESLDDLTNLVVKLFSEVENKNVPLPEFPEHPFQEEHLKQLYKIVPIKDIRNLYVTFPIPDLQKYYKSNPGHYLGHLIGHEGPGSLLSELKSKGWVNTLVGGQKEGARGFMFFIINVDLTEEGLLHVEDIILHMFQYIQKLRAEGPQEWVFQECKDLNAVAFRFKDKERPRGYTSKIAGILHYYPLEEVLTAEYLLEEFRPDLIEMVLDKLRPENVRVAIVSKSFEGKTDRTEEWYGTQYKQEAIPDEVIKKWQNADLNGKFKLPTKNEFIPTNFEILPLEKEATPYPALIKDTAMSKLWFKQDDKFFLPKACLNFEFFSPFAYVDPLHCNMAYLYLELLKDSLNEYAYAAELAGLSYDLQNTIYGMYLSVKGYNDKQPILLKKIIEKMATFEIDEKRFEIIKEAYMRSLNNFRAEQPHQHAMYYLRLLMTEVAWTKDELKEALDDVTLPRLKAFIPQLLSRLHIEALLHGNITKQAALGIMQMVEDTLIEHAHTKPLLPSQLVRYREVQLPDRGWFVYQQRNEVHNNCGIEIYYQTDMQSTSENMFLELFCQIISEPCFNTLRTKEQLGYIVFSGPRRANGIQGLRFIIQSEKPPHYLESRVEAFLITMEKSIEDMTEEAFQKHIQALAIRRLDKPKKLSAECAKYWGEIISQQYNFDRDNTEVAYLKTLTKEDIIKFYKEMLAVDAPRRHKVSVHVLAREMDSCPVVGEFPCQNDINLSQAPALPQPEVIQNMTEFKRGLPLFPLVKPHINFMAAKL
Put plainly: Dose Response: Fluorescence polarization-based cell-based high throughput dose response assay for inhibitors of insulin-degrading enzyme (IDE). [Related pubchem assays: 434962 (Primary screen (IDE inhibitors in singlicate)), 449730 (Counterscreen (Cytotoxicity in triplicate)), 435028 (Confirmation (IDE inhibitors in triplicate)), 434984 (Summary …. The class given is functional.

In assay [4] the target is T2, Mannose-6-phosphate isomerase (Homo sapiens, UniProt P34949).
T2 sequence (P34949 whole entry): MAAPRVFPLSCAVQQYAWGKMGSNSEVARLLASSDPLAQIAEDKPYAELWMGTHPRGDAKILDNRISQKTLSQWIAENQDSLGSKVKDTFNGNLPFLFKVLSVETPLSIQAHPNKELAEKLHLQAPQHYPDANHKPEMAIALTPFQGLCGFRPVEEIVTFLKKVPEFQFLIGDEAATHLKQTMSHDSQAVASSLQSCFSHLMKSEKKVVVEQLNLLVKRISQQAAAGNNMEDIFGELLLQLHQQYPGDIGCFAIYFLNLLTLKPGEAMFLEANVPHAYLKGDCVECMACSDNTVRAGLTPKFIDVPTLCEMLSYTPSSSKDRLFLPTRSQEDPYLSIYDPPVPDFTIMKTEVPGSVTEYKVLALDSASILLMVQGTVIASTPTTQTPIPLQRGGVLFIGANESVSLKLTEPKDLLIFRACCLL
In words: PMI enzyme inhibitors, confirmation, biochemical, fluorescence intensity (AID 1535).

For assay [5], the target named is DNA dC->dU-editing enzyme APOBEC-3A (Homo sapiens, UniProt P31941). Put plainly: APOBEC3A DNA deaminase inhibitors, dose response, biochemical (AID 504722). The class given is functional.
DNA dC->dU-editing enzyme APOBEC-3A, sequence (P31941 whole entry): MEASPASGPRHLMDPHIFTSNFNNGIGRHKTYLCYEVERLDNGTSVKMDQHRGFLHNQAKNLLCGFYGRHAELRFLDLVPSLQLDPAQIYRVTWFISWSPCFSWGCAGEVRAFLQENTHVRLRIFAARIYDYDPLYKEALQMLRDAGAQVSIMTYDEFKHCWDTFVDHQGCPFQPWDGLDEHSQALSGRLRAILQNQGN
Assay [6] concerns the target Glucose-6-phosphate 1-dehydrogenase (Homo sapiens, UniProt P11413). In words: human G6PD enzyme inhibitors, dose response, selectivity assay for P. falciparum G6PD inhibitor project, biochemical, fluorescence (AID 504792). The class given is functional.
The next assay concerns the target T3, Phosphomannomutase 2 (Homo sapiens, UniProt O15305).
T3 sequence (O15305 whole entry): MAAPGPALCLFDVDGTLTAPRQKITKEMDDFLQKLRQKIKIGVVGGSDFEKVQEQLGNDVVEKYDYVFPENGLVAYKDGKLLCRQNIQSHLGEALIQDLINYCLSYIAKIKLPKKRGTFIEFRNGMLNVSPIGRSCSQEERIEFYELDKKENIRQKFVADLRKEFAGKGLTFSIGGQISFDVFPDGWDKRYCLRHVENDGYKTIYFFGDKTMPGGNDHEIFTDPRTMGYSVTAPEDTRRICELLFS
Put plainly: Counter screen SAR assay for PMM2 inhibitors via a fluorescence intensity assay. [Related pubchem assays (depositor defined):AID1545, AID1574].

Assay [7] concerns the target Phosphoethanolamine/phosphocholine phosphatase (Homo sapiens, UniProt Q8TCT1). Put plainly: SAR assay for compounds that inhibit PHOSPHO1. [Related pubchem assays (depositor defined):AID1545, AID1565, AID1574].
The target in assay [8] is DNA dC->dU-editing enzyme APOBEC-3G (Homo sapiens, UniProt Q9HC16). Put plainly: Dose Response confirmation of small molecule APOBEC3G DNA Deaminase Inhibitors via a fluorescence-based single-stranded DNA deaminase assay. [Related pubchem assays (depositor defined):AID493012, AID493028]. Type of assay: functional.
DNA dC->dU-editing enzyme APOBEC-3G, sequence (Q9HC16 whole entry): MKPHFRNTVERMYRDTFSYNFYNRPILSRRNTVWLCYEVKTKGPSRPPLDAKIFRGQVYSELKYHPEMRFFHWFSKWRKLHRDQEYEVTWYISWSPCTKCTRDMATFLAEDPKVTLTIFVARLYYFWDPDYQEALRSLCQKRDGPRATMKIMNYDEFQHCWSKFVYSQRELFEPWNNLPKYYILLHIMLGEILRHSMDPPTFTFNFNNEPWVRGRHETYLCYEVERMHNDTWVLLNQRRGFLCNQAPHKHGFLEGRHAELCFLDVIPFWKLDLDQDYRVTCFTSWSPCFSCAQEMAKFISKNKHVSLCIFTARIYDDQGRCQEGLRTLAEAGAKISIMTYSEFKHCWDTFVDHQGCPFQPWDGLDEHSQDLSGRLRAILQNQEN
The target of assay [9] is T4, Alkaline phosphatase, tissue-nonspecific isozyme (Homo sapiens, UniProt P05186).
T4 sequence (P05186 whole entry): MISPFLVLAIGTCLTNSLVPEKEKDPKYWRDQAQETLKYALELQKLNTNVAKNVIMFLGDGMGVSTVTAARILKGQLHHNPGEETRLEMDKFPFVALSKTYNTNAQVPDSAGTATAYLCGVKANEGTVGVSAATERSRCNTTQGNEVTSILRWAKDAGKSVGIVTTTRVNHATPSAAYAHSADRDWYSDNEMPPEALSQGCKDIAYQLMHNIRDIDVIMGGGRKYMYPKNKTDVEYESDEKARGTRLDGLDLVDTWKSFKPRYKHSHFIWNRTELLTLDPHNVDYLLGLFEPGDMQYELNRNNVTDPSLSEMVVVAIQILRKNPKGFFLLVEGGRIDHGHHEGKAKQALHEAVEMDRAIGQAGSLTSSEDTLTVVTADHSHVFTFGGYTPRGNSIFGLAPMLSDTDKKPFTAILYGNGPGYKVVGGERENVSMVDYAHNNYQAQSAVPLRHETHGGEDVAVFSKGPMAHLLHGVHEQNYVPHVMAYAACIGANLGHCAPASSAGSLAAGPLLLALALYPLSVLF
In words: human TNAP enzyme inhibitors, SAR follow-up, biochemical, luminescent, dose response (AID 1056).

Assay [10] has as its target FAD-linked sulfhydryl oxidase ALR (Homo sapiens, UniProt P55789). Put plainly: inhibitors of human ALR sulfhydryl oxidase, dose response, biochemical, H2O2 detection, luminescence, cherry-pick (AID 493248).
Another assay relates to Vero. In words: Vero cell cytotoxicity, cytotoxicity control for flavivirus capping enzyme inhibitors (AID 588742). Type of assay: functional. The following applies: Chlorocebus sabaeus.
For another assay, the target named is Genome polyprotein (dengue virus type 2, UniProt P29990). In words: Dengue-2 NS5 methyltransferase inhibitors, primary screen, biochemical, confirmation dose response (AID 588689). Type of assay: functional.
Genome polyprotein, sequence (P29990 2492-3391 limits assumed): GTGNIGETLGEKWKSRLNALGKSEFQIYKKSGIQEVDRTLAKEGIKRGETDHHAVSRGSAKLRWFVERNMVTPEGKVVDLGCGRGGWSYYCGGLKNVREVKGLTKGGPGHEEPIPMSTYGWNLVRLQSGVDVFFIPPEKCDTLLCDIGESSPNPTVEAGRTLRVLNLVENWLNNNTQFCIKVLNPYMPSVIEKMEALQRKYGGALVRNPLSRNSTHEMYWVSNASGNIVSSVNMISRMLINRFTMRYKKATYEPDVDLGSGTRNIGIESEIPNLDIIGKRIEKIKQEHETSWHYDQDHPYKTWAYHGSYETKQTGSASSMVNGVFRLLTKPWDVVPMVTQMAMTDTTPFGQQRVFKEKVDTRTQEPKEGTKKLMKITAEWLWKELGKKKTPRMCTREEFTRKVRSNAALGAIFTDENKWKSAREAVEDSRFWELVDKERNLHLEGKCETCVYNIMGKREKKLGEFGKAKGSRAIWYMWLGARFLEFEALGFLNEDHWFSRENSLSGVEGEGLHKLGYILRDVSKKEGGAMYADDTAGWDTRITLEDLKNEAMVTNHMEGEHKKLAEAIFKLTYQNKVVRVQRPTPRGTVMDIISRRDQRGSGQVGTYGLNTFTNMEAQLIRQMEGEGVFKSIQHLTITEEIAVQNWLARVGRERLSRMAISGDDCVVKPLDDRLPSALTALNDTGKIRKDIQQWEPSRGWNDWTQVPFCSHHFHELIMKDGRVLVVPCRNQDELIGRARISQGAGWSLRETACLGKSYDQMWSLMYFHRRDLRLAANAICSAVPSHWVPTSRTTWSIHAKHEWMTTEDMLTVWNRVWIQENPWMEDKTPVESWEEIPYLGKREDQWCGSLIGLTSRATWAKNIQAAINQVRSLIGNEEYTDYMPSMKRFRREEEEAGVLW
The target of assay [11] is T5, Orexin receptor type 2 (Homo sapiens, UniProt O43614).
T5 sequence (O43614 whole entry): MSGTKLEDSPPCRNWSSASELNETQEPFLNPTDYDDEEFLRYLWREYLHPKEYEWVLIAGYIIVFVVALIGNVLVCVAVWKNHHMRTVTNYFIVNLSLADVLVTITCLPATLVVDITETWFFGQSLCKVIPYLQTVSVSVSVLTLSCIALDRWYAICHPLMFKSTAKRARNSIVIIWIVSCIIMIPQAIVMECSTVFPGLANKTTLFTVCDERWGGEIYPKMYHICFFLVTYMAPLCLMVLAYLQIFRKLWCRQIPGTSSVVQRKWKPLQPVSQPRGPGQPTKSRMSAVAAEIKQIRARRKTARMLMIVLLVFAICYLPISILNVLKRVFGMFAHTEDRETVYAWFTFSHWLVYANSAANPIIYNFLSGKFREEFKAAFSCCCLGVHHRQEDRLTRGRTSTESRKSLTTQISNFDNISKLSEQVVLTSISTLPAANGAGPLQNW
Put plainly: Counterscreen assay for antagonists of the orexin 1 receptor (OX1R; HCRTR1): Fluorescence-based cell-based dose response assay for antagonists of the orexin 2 receptor (OX2R; HCRTR2), run by assay provider. Type of assay: functional.

In assay [12] the target is T5, Orexin receptor type 2. Put plainly: Counterscreen assay for antagonists of the orexin 1 receptor (OX1R; HCRTR1): Homogeneous Time Resolved Fluorescence (HTRF)-based cell-based dose response assay for antagonists of the orexin 2 receptor (OX2R; HCRTR2), run by assay provider. The class given is functional.
Assay [13] concerns the target Endoplasmic reticulum aminopeptidase 1 (Homo sapiens, UniProt Q9NZ08). In words: ERAP1 aminopeptidase inhibitors, dose response, biochemical, cherry-pick, set 2, plate reader (AID 743314).

Each structure is given as a SMILES string. Activity calls are given as the source filed them. A value given as a limit tells only on which side of the number the result lay.

FAD-linked sulfhydryl oxidase ALR, sequence (P55789 whole entry): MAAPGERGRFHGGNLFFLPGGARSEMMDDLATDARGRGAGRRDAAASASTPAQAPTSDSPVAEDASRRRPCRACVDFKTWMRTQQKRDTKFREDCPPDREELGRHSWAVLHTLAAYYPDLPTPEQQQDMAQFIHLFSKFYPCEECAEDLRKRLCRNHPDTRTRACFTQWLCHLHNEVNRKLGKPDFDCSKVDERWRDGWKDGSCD
Endoplasmic reticulum aminopeptidase 1, sequence (Q9NZ08 whole entry): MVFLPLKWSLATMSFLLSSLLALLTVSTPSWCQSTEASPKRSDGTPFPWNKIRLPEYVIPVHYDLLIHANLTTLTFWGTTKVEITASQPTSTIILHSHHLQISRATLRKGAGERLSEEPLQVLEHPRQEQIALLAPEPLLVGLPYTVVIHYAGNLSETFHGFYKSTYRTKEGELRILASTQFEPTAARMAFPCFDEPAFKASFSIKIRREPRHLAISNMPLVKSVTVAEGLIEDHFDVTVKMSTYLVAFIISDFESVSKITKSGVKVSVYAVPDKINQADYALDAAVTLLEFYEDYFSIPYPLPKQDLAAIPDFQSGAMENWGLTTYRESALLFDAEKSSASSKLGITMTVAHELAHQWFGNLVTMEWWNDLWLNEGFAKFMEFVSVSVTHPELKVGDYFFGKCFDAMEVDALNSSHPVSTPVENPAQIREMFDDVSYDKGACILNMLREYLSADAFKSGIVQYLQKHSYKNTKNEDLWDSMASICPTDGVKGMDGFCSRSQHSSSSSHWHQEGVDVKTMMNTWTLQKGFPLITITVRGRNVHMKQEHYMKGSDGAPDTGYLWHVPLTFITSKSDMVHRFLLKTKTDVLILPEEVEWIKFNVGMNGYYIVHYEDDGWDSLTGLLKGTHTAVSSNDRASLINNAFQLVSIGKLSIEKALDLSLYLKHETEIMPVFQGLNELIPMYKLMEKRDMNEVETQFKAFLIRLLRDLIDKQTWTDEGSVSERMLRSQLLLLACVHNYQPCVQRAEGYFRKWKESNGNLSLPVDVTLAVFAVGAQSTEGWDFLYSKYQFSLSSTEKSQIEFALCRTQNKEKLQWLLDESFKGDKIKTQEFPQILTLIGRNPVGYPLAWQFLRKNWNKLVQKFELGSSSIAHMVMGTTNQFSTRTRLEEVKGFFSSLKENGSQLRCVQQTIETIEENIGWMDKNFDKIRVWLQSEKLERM
Phosphoethanolamine/phosphocholine phosphatase, sequence (Q8TCT1 whole entry): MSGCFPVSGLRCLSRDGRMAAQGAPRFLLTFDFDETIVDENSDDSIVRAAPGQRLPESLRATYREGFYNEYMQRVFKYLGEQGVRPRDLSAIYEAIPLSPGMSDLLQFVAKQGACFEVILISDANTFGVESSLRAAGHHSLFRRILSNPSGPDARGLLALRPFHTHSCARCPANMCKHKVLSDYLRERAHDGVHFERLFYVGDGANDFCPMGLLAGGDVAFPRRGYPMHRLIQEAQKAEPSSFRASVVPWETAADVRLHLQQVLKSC
V-type proton ATPase subunit c', sequence (P32842 whole entry): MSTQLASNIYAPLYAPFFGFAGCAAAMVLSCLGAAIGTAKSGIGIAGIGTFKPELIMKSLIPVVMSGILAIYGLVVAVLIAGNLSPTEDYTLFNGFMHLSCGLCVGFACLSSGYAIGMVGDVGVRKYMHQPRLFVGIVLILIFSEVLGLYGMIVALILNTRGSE
Glucose-6-phosphate 1-dehydrogenase, sequence (P11413 whole entry): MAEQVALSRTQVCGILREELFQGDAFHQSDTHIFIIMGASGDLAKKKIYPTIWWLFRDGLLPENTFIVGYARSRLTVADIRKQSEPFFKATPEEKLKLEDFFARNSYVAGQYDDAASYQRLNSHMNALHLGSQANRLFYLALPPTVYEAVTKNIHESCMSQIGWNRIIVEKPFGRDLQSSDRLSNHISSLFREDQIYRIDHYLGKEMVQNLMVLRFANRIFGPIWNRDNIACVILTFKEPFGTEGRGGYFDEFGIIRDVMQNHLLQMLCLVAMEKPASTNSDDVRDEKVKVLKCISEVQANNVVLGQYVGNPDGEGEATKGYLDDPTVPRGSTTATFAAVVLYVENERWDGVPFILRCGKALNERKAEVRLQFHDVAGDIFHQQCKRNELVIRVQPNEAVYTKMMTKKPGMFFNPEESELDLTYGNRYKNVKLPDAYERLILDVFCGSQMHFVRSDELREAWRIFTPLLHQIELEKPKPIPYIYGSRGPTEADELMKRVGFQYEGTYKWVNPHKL

Take `O=C1C=CC(=Nc2ccc3c(c2)Cc2cc(F)ccc2-3)O1`: the EC50 in assay [1] was 7.26 µM (active).

Turning to `N#Cc1c(-n2cccc2/C=N/O)sc2c1CCCC2`, the IC50 in assay [2] was 155 µM (inactive).

For `O=C(O)c1ccccc1NS(=O)(=O)c1cccc(-n2sc3ccccc3c2=O)c1`, the IC50 in assay [3] was 34.8 µM (not active); on Large T antigen, 13.2 µM (active); on Insulin-degrading enzyme, 2.1 µM (active); in assay [4] it was 0.707 µM (active); in assay [5], > 100 µM (inactive); in assay [6], 17.6 µM (active). Besides, the IC50 at Phosphomannomutase 2 is 5.15 µM (active); in assay [7] it was 0.808 µM (active); in [8], 9.14 µM (active); in [9] it was > 100 µM (inactive); at Genome polyprotein it was 46.4 µM (active); on Orexin receptor type 2 [11], 6.8 µM (active). The IC50 at Orexin receptor type 2 [12] is 3.45 µM (active). In addition, the figures for the AC50 in assay [10] and in [13] were 0.243 µM (active) and 0.73 µM (active), respectively. Besides, the CC50 in the assay on Vero is > 40 µM (active).
